Laboratory results published in patent publication US5821231A, “CS-1 peptidomimetics, compositions and methods of using same” (Cytel Corporation, priority 1995, dated 1998).
Square brackets hold non-standard residues; d marks the D form. Peptide text beside a SMILES is read from it. * marks the point of attachment. PhAc = O=C(Cc1ccccc1)*

How the values were obtained:
[1] = test system: Porcine peripheral blood lymphocytes; test: In vitro porcine allograft model: transendothelial lymphocyte migration; format: cell-based; details: 10 μg/ml in the medium; IL-1β-stimulated SMC
Procedure: A similar study was carried out in vitro using porcine coronary artery endothelial cells (EC; as are present in the IEL) and smooth muscle cells (SMC; as are present in the medial layer of the artery). The two cell types were cultured using a membrane transwell system, with the SMC on the bottom layer in M-199 medium (Gibco Labs.). The SMC were stimulated with 100 ng/ml of interleukin-1β (IL-1β) for 24 hours prior to the start of the assay. Porcine peripheral blood lymphocytes were separated by Ficoll-Hypaque, radiolabeled and incubated overnight (about 18 hours) on the EC.

asthmatic sheep = test: Treatment of asthmatic sheep (Ascaris suum antigen, crossover); format: in vivo; details: nebulized 1 mg/kg; FIG. 7
Procedure: Six asthmatic sheep were treated in a double blind cross-over study. […] This study was carried out generally as described in Abraham et al., J. Clin. Invest., 93:776-787 (1994).
The inhibitor compound used here was Compound ID No. 896.52, N-phenylacetyl-Leu-Asp-Phe-D-Pro-NH2, with a control compound that comprised the previously described compound having the same residues in a scrambled sequence. The vehicle for the nebulized compounds was phosphate-buffered saline. The compounds were administered at a dose of 1 mg/kg each, twice a day for three days prior to challenge, as well as 0.5 hours prior to and four hours post challenge on day 4. Because this was a crossover study, each animal received one or the other treatment, followed by a rest and then the other treatment. Each animal therefore served as its own control.
Post challenge airway responsiveness was also assayed. Here, specific lung resistance, SRL, returned to baseline values 24 hours after challenge, however, the sheep were hyperresponsive to inhaled carbachol at that time.

VLA-4 = VLA-4 (Homo sapiens, UniProt P05556+P13612); test: In vitro binding assay: 51Cr-labeled Jurkat cells to solid phase-bound CS-1 compound (SEQ ID NO:1); format: cell-based; design: inflammatory cells that contain the VLA-4 receptor [Jurkat cells; host or cells: Jurkat cells (human T lymphoblastic line)
Sequence of VLA-4 (P13612 34-1032): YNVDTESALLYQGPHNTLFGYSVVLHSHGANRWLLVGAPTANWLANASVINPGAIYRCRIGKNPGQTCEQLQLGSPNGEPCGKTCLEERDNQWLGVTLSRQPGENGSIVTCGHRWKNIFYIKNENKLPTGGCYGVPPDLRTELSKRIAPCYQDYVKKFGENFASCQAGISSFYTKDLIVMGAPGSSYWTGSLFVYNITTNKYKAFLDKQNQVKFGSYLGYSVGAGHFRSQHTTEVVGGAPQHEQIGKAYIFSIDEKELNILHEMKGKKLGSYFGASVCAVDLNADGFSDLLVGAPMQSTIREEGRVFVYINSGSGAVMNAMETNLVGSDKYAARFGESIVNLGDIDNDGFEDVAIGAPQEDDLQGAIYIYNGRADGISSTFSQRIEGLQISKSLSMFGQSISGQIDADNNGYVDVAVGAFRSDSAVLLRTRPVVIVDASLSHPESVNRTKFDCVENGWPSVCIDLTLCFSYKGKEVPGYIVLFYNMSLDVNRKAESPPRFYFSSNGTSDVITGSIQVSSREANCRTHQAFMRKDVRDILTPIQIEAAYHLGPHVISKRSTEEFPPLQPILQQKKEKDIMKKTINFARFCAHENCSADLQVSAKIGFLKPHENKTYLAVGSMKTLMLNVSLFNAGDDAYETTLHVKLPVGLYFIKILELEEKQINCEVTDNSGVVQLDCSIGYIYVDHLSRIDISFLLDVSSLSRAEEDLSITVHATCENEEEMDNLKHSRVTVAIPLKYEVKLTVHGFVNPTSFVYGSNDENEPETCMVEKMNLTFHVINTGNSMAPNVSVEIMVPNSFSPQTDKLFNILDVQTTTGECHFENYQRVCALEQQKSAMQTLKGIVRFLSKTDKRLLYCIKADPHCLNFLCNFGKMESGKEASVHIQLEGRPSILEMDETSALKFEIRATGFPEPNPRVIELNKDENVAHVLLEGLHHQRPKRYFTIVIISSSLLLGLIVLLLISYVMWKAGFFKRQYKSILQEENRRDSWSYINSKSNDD
Sequence of VLA-4 (P05556 21-798): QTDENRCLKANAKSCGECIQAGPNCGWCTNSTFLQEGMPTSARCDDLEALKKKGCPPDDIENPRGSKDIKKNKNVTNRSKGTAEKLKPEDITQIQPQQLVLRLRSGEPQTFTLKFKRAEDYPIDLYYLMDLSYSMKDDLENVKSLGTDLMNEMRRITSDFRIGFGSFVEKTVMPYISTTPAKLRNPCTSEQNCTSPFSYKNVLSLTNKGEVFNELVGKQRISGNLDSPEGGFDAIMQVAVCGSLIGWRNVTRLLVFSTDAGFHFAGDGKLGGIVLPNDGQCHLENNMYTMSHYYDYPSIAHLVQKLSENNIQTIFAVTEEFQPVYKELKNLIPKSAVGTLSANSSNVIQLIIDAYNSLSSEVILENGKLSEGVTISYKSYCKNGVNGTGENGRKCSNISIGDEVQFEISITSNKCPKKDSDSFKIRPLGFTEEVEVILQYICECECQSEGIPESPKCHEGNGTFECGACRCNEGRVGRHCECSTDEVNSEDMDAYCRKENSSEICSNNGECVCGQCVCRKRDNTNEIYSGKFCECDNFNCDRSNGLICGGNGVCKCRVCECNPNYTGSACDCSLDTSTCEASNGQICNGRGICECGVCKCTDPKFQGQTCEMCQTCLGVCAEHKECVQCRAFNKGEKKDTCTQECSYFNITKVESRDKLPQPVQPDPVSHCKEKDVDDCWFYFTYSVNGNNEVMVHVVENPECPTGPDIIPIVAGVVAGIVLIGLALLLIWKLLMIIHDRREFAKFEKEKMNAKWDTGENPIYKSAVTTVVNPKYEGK
Procedure: Binding inhibition is measured here as a concentration of compound that inhibits one-half the binding between a standard number of Jurkat cells and a standard amount of CS-1 compound bound to the surface of a microtiter plate well. Those concentrations are conveniently expressed as IC50 values, smaller numbers indicating a lower concentration required to inhibit 50 percent binding and therefore greater potency. Further specifics of this assay are provided hereinafter.
Jurkat cells (ATCC TIB 152), a human T lymphoblastic line, labeled with ^51 chromium were used to assay in vitro binding inhibition provided by various compounds discussed herein.
The plates were prepared as follows: The 25-mer CS-1 compound (SEQ ID NO:1) dissolved at 0.5-1 μg/ml in a buffer of 0.1M NaHCO3 at pH 9.5 that also contained 10 μg/ml of bovine serum albumin (BSA) or a conjugate of the CS-1 compound linked to ovalbumin (CS-1-OVA) dissolved at 1-2.5 μg/ml in the same buffer was used as the substrate. Each well of the microtiter plates was coated with 50 μl of substrate or buffer alone for controls. The wells were permitted to dry out completely and were then rinsed twice with PBS at pH 7.4. Non-specific binding sites of each well were then blocked using 200 μl per well of RPMI/1 percent BSA for two hours at room temperature.
Jurkat cells (3-5×10^6 cells) were placed into a 15 ml Falcon™ round-bottom tube with a cap. The tube was centrifuged, and the extra medium was then removed.
Two hundred microliters of a ^51 Cr labeling solution were added to the centrifuged cells and maintained in contact with the cells for 90-120 minutes in a warm room. […] Longer contact times provide a greater amount of labeling but lower cell viability.
The labeled cells are washed with (i) complete medium, (ii) 1 mM EDTA/PBS and then (iii) RPM1/1 percent BSA free of serum components. The cells are centrifuged after each washing. The cells are finally resuspended in serum-free RPMI/1 percent BSA at a concentration of 1×10^6 viable cells/ml, which provides a concentration that is diluted by one-half in the assay.
Inhibitor compounds are prepared as stock solutions at 20 mg/ml in DMSO in 1.5 ml cryogenic screwcap vials, and were stored at -70° C. Using Flow™ round-bottom or V-bottom microtiter plates, the inhibitor compounds were prepared at twice the assay concentration in RPMI/1 percent BSA at 60 μl/well.
Four initial dilutions were typically used.
The ^51 Cr-labeled cells ([…] at 60 μl/well) were then admixed with the diluted compound solutions. The admixtures were maintained at room temperature (about 22° C.) for 30 minutes.
One hundred microliters of each inhibitor compound/cell admixture were transferred to the substrate-coated wells. This was done in triplicate for each dilution. The resulting plates were incubated for 30 minutes at 37° C. and then washed gently three times with RPMI/1 percent BSA at 200 μl/well. Binding was observed microscopically, particularly after the second wash.
The bound cells were then lysed by the addition of a 0.5 percent solution of sodium dodecylsulfate in water at 100 μl/well. The resulting solutions were then processed for counting and calculation of IC50 values following usual procedures.
The data of Table 1 are normalized to the binding of SEQ ID NO: 3. […] Multiple assays for the same compound were averaged.

Compound: CC(C)C[C@H](NC(=O)[C@H](CC(=O)O)NC(=O)Cc1ccccc1)C(=O)N[C@@H](Cc1ccccc1)C(=O)N1CCC[C@@H]1C(N)=O [N-phenylacetyl-Asp-Leu-Phe-D-Pro-NH2, reference compound] (PhAc-DLF[dP]-NH2)
- reduction of transendothelial lymphocyte migration [1]: did not reduce migration
- change from baseline specific lung resistance (SRL) on challenge (asthmatic sheep): had an increase in that pulmonary function (SRL)
- Relative Potency (VLA-4; binding inhibition potency (IC50) relative to standard compound of SEQ ID NO:3 = 1, about one-tenth or less assigned zero): 0
- VLA-4 binding inhibition (in words) (VLA-4; compared with standard 10-mer of SEQ ID NO:3 or other peptides): no inhibition of VLA-4
